pEC50: −log10 of the molar value.
Target: T1, ABCG2 (Homo sapiens, UniProt Q9UNQ0)
T1 sequence (Q9UNQ0 1-655): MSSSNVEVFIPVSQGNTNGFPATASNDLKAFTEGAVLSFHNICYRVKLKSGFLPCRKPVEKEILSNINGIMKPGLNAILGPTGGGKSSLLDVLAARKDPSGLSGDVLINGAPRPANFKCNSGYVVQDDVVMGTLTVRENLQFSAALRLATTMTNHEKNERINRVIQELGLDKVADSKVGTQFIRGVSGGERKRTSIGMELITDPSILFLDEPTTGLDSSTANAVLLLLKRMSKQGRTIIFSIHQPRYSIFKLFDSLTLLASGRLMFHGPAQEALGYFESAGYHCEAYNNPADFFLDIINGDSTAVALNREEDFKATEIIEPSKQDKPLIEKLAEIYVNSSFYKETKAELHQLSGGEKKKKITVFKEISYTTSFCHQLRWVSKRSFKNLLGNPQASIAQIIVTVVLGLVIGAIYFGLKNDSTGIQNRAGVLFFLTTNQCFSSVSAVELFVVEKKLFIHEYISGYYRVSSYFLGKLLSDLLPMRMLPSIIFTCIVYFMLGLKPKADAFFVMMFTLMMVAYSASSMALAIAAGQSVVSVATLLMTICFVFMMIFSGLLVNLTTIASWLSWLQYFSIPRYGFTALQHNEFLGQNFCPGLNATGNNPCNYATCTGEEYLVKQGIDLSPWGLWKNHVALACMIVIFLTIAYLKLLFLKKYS
Assay: Vi-sensitive ABCG2 ATPase stimulation in High Five insect cell membranes
Format: biochemical

| SMILES | pEC50 |
| --- | --- |
| COc1ccc(C(=O)c2c[nH]c3ccc(OC)cc23)cc1 [compound 8, (5-Methoxy-1H-indol-3-yl)(4-methoxyphenyl)methanone] | 6.12 |
| COc1ccc(C(=O)c2ccc3[nH]cc(C(=O)c4ccc(OC)cc4)c3c2OC)cc1 [compound 2, (4-methoxy-1H-indole-3,5-diyl)bis((4-methoxyphenyl)methanone)] | 6.68 |
